Experimental data published in PMC11882969 (Nature Communications, 2025).
Several values for one entry are separate records, joined by “and”; a condition that tells them apart may be missing. Equal values may be shown once. Read-outs that look alike come from different tables or passages of the source.

How the values were obtained:
[1] = target: T1, CB1 (rCB1) (Rattus norvegicus, UniProt P20272); assay: Single-point radioligand displacement screen; type: binding
[2] = target: AmpC β-lactamase (Escherichia coli, UniProt P00811); type: biochemical; conditions: Rep 1-3 mean; sheet FigureS2c
Protocol: Enzyme inhibition assays to test for colloidal inhibition were performed at room temperature using CLARIOstar Plate Reader (BMG Labtech). Samples were prepared in 50 mM KPi buffer, pH 7.0 with final DMSO concentration at 1% (v/v). Compounds were incubated with 2 nM AmpC β-lactamase (AmpC) or Malate dehydrogenase (MDH) for 5 min. AmpC reactions were initiated by the addition of 50 μM CENTA chromogenic substrate (219475, Calbiochem). […] MDH reactions were initiated by the addition of 200 μM nicotinamide adenine dinucleotide (NADH) (54839, Sigma Aldrich) and 200 μM oxaloacetic acid (324427, Sigma Aldrich). The change in absorbance was monitored at 340 nm for 60 sec. Initial rates were divided by the DMSO control rate to determine % enzyme activity. […]. Data was analyzed using GraphPad Prism 9.1.

[3] = target: T2, hCB1 (Homo sapiens, UniProt P21554); assay: Lance Ultra cAMP accumulation assay, CHO cells; type: cell-based; parameters: expressed in transfected cells; conditions: for cAMP assay signal, concentration-response point: replicates, sheet FigureS2a; for normalised cAMP response, concentration-response (Figure2f), replicate values: log[Compound;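 for all read-outs here: human CB1R stably expressed in CHO cells, ligands co-incubated with forskolin at room temperature, read-out is lowering of forskolin-stimulated cAMP accumulation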
[4] = target: T2, hCB1; assay: bioSensAll ebBRET signaling profiling, hCB1; type: cell-based; parameters: host or cells: HEK293SL cells, transient PEI transfection; conditions: for Gi1 hCB1 response: Gi1 biosensor; for Gi1 hCB1 / GoB hCB1: single replicate values, FigS6a; for EC50: read-out: EC50 [95% CI]; for Emax: normalized to CP-55,940
[5] = target: T1, CB1 (rCB1); assay: Radioligand competition binding, [3H]-CP-55,940, rat brain membranes

T2 sequence (P21554 whole entry): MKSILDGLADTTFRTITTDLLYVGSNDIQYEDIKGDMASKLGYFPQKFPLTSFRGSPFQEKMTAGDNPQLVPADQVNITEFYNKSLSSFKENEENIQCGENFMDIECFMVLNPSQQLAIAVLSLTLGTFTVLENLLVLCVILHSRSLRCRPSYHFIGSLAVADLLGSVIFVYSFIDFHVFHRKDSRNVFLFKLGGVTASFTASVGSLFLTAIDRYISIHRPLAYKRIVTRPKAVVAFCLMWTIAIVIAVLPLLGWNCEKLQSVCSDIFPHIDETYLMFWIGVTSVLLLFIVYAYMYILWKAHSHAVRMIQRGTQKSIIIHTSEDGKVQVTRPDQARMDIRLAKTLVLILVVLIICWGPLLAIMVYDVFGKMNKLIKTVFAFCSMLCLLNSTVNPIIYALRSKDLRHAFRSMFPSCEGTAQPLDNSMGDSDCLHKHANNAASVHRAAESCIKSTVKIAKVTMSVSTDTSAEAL
Chain of AmpC β-lactamase (P00811 20-377): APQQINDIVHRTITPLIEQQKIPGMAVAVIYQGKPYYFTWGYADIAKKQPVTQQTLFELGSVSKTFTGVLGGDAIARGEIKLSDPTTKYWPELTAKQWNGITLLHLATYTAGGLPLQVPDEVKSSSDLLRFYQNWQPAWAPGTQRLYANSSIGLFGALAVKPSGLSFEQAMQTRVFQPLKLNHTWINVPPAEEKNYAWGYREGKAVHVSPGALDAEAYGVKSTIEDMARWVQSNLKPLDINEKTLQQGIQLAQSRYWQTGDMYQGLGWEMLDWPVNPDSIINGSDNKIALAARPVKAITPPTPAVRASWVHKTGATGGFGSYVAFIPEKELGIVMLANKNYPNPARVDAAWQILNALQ
T1 sequence (P20272 whole entry): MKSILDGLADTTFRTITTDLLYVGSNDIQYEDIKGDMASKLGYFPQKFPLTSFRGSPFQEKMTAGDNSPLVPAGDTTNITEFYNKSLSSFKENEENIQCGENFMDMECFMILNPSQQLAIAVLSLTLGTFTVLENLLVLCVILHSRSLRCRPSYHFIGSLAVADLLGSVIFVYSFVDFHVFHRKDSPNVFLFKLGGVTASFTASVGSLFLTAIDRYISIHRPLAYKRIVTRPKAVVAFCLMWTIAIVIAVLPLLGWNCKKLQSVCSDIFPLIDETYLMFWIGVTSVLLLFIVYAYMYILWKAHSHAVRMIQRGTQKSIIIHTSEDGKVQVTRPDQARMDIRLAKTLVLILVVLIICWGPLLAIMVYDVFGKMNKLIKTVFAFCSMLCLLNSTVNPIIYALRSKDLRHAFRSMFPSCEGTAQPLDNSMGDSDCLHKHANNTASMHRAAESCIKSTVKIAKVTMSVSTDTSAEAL

COC(=O)C(NC(=O)c1cc(C)n(-c2cccc(F)c2)n1)c1cccs1 (stereo not drawn) [‘51486]
% 1H-CP-55,940 displacement (mean) from single point screen ([1]; 10 µM, 1 µM or 300 nM by cell colour (not visible)): 90.60%
rep1_displacement ([1]; Figure 1c source data, replicate 1): 90.6
AMPC activity (DMSO = 100), replicate means [2]: 133.645 and 104.886 and 117.294
cAMP assay signal, concentration-response point ([3]; compound 0.01 nM): 0.003086 and 0.002857 and 0.002584
cAMP assay signal, concentration-response point ([3]; compound 0.1 nM): 0.003236 and 0.002959 and 0.003953*
cAMP assay signal, concentration-response point ([3]; compound 1 nM): 0.003012 and 0.002545 and 0.00241
cAMP assay signal, concentration-response point ([3]; compound 10 nM): 0.003401 and 0.002801 and 0.00274
cAMP assay signal, concentration-response point ([3]; compound 100 nM): 0.002632 and 0.003106 and 0.002457
cAMP assay signal, concentration-response point ([3]; compound 1000 nM): 0.002532 and 0.002088 and 0.00216
cAMP assay signal, concentration-response point ([3]; compound 10000 nM): 0.001565 and 0.001538 and 0.001686
cAMP assay signal, concentration-response point ([3]; compound 100000 nM): 0.001247 and 0.001041 and 0.0009747
agonism, inhibition of forskolin-stimulated cAMP ([3]; hCB1-expressing cells, in words): modest agonism
normalised cAMP response, concentration-response (Figure2f), replicate values ([3]; M] -5): 61.1478 and 37.2808 and 60.3783 and 74.6524
normalised cAMP response, concentration-response (Figure2f), replicate values ([3]; M] -6): 88.8547 and 72.8445 and 99.0012 and 98.4034
normalised cAMP response, concentration-response (Figure2f), replicate values ([3]; M] -7): 93.8057 and 91.7167 and 95.78 and 96.566
normalised cAMP response, concentration-response (Figure2f), replicate values ([3]; M] -8): 85.2922 and 84.747 and 110.313 and 100.436
normalised cAMP response, concentration-response (Figure2f), replicate values ([3]; M] -9): 104.899 and 94.89 and 101.982 and 109.312
normalised cAMP response, concentration-response (Figure2f), replicate values ([3]; M] -10): 98.9432 and 97.9859 and 99.2252 and 102.121
normalised cAMP response, concentration-response (Figure2f), replicate values ([3]; M] -11): 94.0694 and 79.1039 and 104.119 and 97.9362
normalised cAMP response, concentration-response (Figure2f), replicate values ([3]; M] -12): 99.9579 and 92.8829 and 101.899 and 97.9047
Gi1 hCB1 response ([4]; Log [Compound] (M) -4.22186): 123.512
Gi1 hCB1 response ([4]; Log [Compound] (M) -4.63927): 98.3102
Gi1 hCB1 response ([4]; Log [Compound] (M) -5.05788): 74.9216
Gi1 hCB1 response ([4]; Log [Compound] (M) -5.47381): 77.764
Gi1 hCB1 response ([4]; Log [Compound] (M) -5.89285): 72.6387
Gi1 hCB1 response ([4]; Log [Compound] (M) -6.31878): 38.0146
Gi1 hCB1 response ([4]; Log [Compound] (M) -6.72585): 33.2921
Gi1 hCB1 response ([4]; Log [Compound] (M) -7.14267): -1.511
Gi1 hCB1 response ([4]; Log [Compound] (M) -7.55284): -15.3428
Gi1 hCB1 response ([4]; Log [Compound] (M) -8): 9.7692
Gi1 hCB1 response ([4]; Log [Compound] (M) -8.22186): 0.839
Gi1 hCB1 response ([4]; Log [Compound] (M) -8.39794): -12.3884
Gi1 hCB1 response ([4]; Log [Compound] (M) -8.68787): 2.204
Gi1 hCB1 response ([4]; Log [Compound] (M) -9.15521): -11.247
Gi1 hCB1 response ([4]; Log [Compound] (M) -9.61989): -13.1718
Gi1 hCB1 response ([4]; Log [Compound] (M) -10.0969): -6.323
Gi1 hCB1 response ([4]; Log [Compound] (M) -10.5529): -17.8943
Gi1 hCB1 response ([4]; Log [Compound] (M) -11.0177): -4.935
Gi1 hCB1 response ([4]; Log [Compound] (M) -11.4949): -5.54
Gi1 hCB1 response ([4]; Log [Compound] (M) -11.9208): -6.838
Gi1 hCB1 response ([4]; Log [Compound] (M) -12.3979): -1.466
Gi1 hCB1 response ([4]; Log [Compound] (M) -12.8861): -7.42
Gi1 hCB1 response ([4]; Log [Compound] (M) -13, individual replicate values): -9.747 and -10.7098
Gi1 hCB1 ([4]; Log [Compound] (M) -4.22186): 75.4915
GoB hCB1 ([4]; Log [Compound] (M) -4.22186): 69.3873
Gi1 hCB1 ([4]; Log [Compound] (M) -4.63927): 68.0453
GoB hCB1 ([4]; Log [Compound] (M) -4.63927): 69.0456
Gi1 hCB1 ([4]; Log [Compound] (M) -5.05788): 65.332
GoB hCB1 ([4]; Log [Compound] (M) -5.05788): 68.5421
Gi1 hCB1 ([4]; Log [Compound] (M) -5.47381): 58.8724
GoB hCB1 ([4]; Log [Compound] (M) -5.47381): 63.2909
Gi1 hCB1 ([4]; Log [Compound] (M) -5.89285): 46.1383
GoB hCB1 ([4]; Log [Compound] (M) -5.89285): 45.7032
Gi1 hCB1 ([4]; Log [Compound] (M) -6.31878): 23.9076
GoB hCB1 ([4]; Log [Compound] (M) -6.31878): 23.3139
Gi1 hCB1 ([4]; Log [Compound] (M) -6.72585): 13.671
GoB hCB1 ([4]; Log [Compound] (M) -6.72585): 15.8509
Gi1 hCB1 ([4]; Log [Compound] (M) -7.14267): 3.866
GoB hCB1 ([4]; Log [Compound] (M) -7.14267): 8.064
Gi1 hCB1 ([4]; Log [Compound] (M) -7.55284): 0.7982
GoB hCB1 ([4]; Log [Compound] (M) -7.55284): 4.971
Gi1 hCB1 ([4]; Log [Compound] (M) -8): -0.466
GoB hCB1 ([4]; Log [Compound] (M) -8): 0.09744
Gi1 hCB1 ([4]; Log [Compound] (M) -8.22186): 0.05819
GoB hCB1 ([4]; Log [Compound] (M) -8.22186): -3.517
Gi1 hCB1 ([4]; Log [Compound] (M) -8.39794): 0.459
GoB hCB1 ([4]; Log [Compound] (M) -8.39794): -0.9816
Gi1 hCB1 ([4]; Log [Compound] (M) -8.68787): -0.3118
GoB hCB1 ([4]; Log [Compound] (M) -8.68787): -2.33
Gi1 hCB1 ([4]; Log [Compound] (M) -9.15521): 0.7365
GoB hCB1 ([4]; Log [Compound] (M) -9.15521): -2.906
Gi1 hCB1 ([4]; Log [Compound] (M) -9.61989): 0.5515
GoB hCB1 ([4]; Log [Compound] (M) -9.61989): -0.9276
Gi1 hCB1 ([4]; Log [Compound] (M) -10.0969): 1.1836
GoB hCB1 ([4]; Log [Compound] (M) -10.0969): -3.176
Gi1 hCB1 ([4]; Log [Compound] (M) -10.5529): 0.2124
GoB hCB1 ([4]; Log [Compound] (M) -10.5529): -1.989
Gi1 hCB1 ([4]; Log [Compound] (M) -11.0177): 0.3974
GoB hCB1 ([4]; Log [Compound] (M) -11.0177): -1.521
Gi1 hCB1 ([4]; Log [Compound] (M) -11.4949): 0.1507
GoB hCB1 ([4]; Log [Compound] (M) -11.4949): -1.827
Gi1 hCB1 ([4]; Log [Compound] (M) -11.9208): -0.03431
GoB hCB1 ([4]; Log [Compound] (M) -11.9208): 0.2953
Gi1 hCB1 ([4]; Log [Compound] (M) -12.3979): -0.06514
GoB hCB1 ([4]; Log [Compound] (M) -12.3979): -1.179
Gi1 hCB1 ([4]; Log [Compound] (M) -12.8861): -0.466
GoB hCB1 ([4]; Log [Compound] (M) -12.8861): -2.798
Gi1 hCB1 ([4]; Log [Compound] (M) -13): -0.8976 and -0.03431
GoB hCB1 ([4]; Log [Compound] (M) -13): -1.143 and -0.8017
pEC50 [95% CI] ([4]; hCB1 Gi1): 6.1 [6.0 – 6.1]
pEC50 [95% CI] ([4]; hCB1 GoB): 6.2 [6.1 – 6.2]
pEC50 [95% CI] ([4]; hCB1 Gz): 6.0 [5.5 – 6.4]
EC50 ([4]; hCB1 Gi1): 849 nM
EC50 ([4]; hCB1 GoB): 711 nM
EC50 ([4]; hCB1 Gz): 1120 nM
Emax ([4]; read-out: Emax [95% CI], hCB1 Gi1): 73%
Emax ([4]; read-out: Emax [95% CI], hCB1 GoB): 74%
Emax ([4]; read-out: Emax [95% CI], hCB1 Gz): 130%
Ki [5]: 794 nM
LLE (lipophilic ligand efficiency) ([5]; LLE = pIC50 − clogP): 3.1
binding free energy ΔG ([5]; from measured Ki): 8.4 kcal/mol
LE (ligand efficiency) ([5]; from rCB1 affinity): 0.32
radioligand binding remaining, competition curve (Figure2e), replicate values ([5]; log[drug] -3.643): 5.353 and 8.4728 and 6.119
radioligand binding remaining, competition curve (Figure2e), replicate values ([5]; log[drug] -4.35655): 7.365 and 2.197 and 0.3487
radioligand binding remaining, competition curve (Figure2e), replicate values ([5]; log[drug] -5.07): 21.0991 and 15.6904 and 16.8933
radioligand binding remaining, competition curve (Figure2e), replicate values ([5]; log[drug] -5.783): 52.9233 and 50.4184 and 37.5523
radioligand binding remaining, competition curve (Figure2e), replicate values ([5]; log[drug] -6.496): 81.1314 and 84.728 and 72.9079
radioligand binding remaining, competition curve (Figure2e), replicate values ([5]; log[drug] -7.21): 91.0402 and 102.441 and 95.6067
radioligand binding remaining, competition curve (Figure2e), replicate values ([5]; log[drug] -7.923): 92.6538 and 100.244 and 104.603
radioligand binding remaining, competition curve (Figure2e), replicate values ([5]; log[drug] -8.636): 97.1716 and 91.2657
pKi [95% CI] ([5]; rCB1): 6.14 [6.01 –6.26]
